Results taken from BigSolDB 2.1.

O=C(O)Cn1cnnn1
Conditions	solubility (mole fraction)
in acetone, 288.23 K	0.0964
in acetone, 293.32 K	0.105
in acetone, 298.24 K	0.115
in acetone, 303.31 K	0.125
in acetone, 308.18 K	0.136
in acetone, 313.26 K	0.149
in acetone, 318.27 K	0.162
in acetone, 323.23 K	0.175
in ethanol, 283.27 K	0.0517
in ethanol, 288.17 K	0.0621
in ethanol, 293.46 K	0.075
in ethanol, 298.22 K	0.0891
in ethanol, 303.31 K	0.108
in ethanol, 308.17 K	0.129
in ethanol, 313.23 K	0.157
in ethanol, 318.21 K	0.189
in ethanol, 323.26 K	0.229
in ethyl acetate, 288.27 K	0.0121
in ethyl acetate, 293.28 K	0.0138
in ethyl acetate, 298.19 K	0.0154
in ethyl acetate, 303.31 K	0.0173
in ethyl acetate, 308.22 K	0.0193
in ethyl acetate, 313.26 K	0.0218
in ethyl acetate, 318.16 K	0.0246
in ethyl acetate, 323.21 K	0.0281
in isopropanol, 288.17 K	0.0282
in isopropanol, 293.22 K	0.0374
in isopropanol, 298.26 K	0.0491
in isopropanol, 303.2 K	0.063
in isopropanol, 308.21 K	0.0794
in isopropanol, 313.29 K	0.0985
in isopropanol, 318.24 K	0.119
in isopropanol, 323.27 K	0.143
in methanol, 288.18 K	0.145
in methanol, 293.29 K	0.155
in methanol, 298.23 K	0.173
in methanol, 303.22 K	0.199
in methanol, 308.24 K	0.233
in methanol, 313.34 K	0.276
in methanol, 318.22 K	0.326
in methanol, 323.19 K	0.383
in n-butyl acetate, 288.22 K	0.00443
in n-butyl acetate, 293.3 K	0.00483
in n-butyl acetate, 298.33 K	0.00552
in n-butyl acetate, 303.18 K	0.00647
in n-butyl acetate, 308.22 K	0.00773
in n-butyl acetate, 313.3 K	0.00931
in n-butyl acetate, 318.24 K	0.0111
in n-butyl acetate, 323.28 K	0.0133
in n-propanol, 288.27 K	0.0312
in n-propanol, 293.21 K	0.0386
in n-propanol, 298.23 K	0.0464
in n-propanol, 303.29 K	0.0557
in n-propanol, 308.33 K	0.068
in n-propanol, 313.18 K	0.0839
in n-propanol, 318.22 K	0.106
in n-propanol, 323.32 K	0.135
in water, 283.17 K	0.00729
in water, 288.31 K	0.0109
in water, 293.28 K	0.016
in water, 298.24 K	0.0234
in water, 303.19 K	0.0348
in water, 308.3 K	0.0549
in water, 313.17 K	0.0826
in water, 318.22 K	0.122
in water, 323.16 K	0.173
